Measurements taken from the supplement of paper PMC4862054.

Tests used:
Conditions in all cases: incubation time: 72 h
HCC1599 [1] = assay: normalised response (% of control), CellTox Green; higher = less cell death (100 = DMSO, 0 = benzethonium chloride kill control)
Outline: (§1)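 Breast cancer cell lines, seeded at 20 µl suspension per well, were incubated for 72 h in 384-well plates containing compound at 5 concentrations. These concentrations rose in 10-fold steps over a 10,000-fold range set for each compound. CellTox Green fluorescence (485/520 nm) was read, then CellTiter-Glo luminescence after 10 min at room temperature, and each plate was normalised to 0.1 % DMSO (100) and a positive kill control (0). Values are normalised signals, each at one concentration.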

BT-549 [2] = assay: as above
Outline: as §1

CAL-148 [3] = assay: as above
Outline: as §1

MDA-MB-231 [4] = assay: as above
Outline: as §1

CAL-51 [5] = assay: as above
Outline: as §1

Hs578T [6] = assay: as above
Outline: as §1

HCC1937 [7] = assay: as above
Outline: as §1

CAL-85-1 [8] = assay: as above
Outline: as §1

MFM-223 [9] = assay: as above
Outline: as §1

BT-474 [10] = assay: as above
Outline: as §1

DU-4475 [11] = assay: as above
Outline: as §1

MCF-10A [12] = assay: as above
Outline: as §1

CAL-120 [13] = assay: as above
Outline: as §1

MDA-MB-468 [14] = assay: as above
Outline: as §1

HDQ-P1 [15] = assay: as above
Outline: as §1

HCC1143 [16] = assay: as above
Outline: as §1

MDA-MB-436 [17] = assay: as above
Outline: as §1

MDA-MB-453 [18] = assay: as above
Outline: as §1

HCC1599 [19] = assay: normalised response (% of control), CellTiter-Glo; higher = more viable cells (100 = DMSO, 0 = benzethonium chloride kill control)
Outline: as §1

BT-549 [20] = assay: as above
Outline: as §1

CAL-148 [21] = assay: as above
Outline: as §1

MDA-MB-231 [22] = assay: as above
Outline: as §1

CAL-51 [23] = assay: as above
Outline: as §1

Hs578T [24] = assay: as above
Outline: as §1

HCC1937 [25] = assay: as above
Outline: as §1

CAL-85-1 [26] = assay: as above
Outline: as §1

SK-BR-3 = assay: as above
Outline: as §1

MFM-223 [27] = assay: as above
Outline: as §1

BT-474 [28] = assay: as above
Outline: as §1

DU-4475 [29] = assay: as above
Outline: as §1

MCF-10A [30] = assay: as above
Outline: as §1

CAL-120 [31] = assay: as above
Outline: as §1

MDA-MB-468 [32] = assay: as above
Outline: as §1

HDQ-P1 [33] = assay: as above
Outline: as §1

HCC1143 [34] = assay: as above
Outline: as §1

MDA-MB-436 [35] = assay: as above
Outline: as §1

MDA-MB-453 [36] = assay: as above
Outline: as §1

SMILES | normalised response (HCC1599 [1]) [%] | normalised response (BT-549 [2]) [%] | normalised response (CAL-148 [3]) [%] | normalised response (MDA-MB-231 [4]) [%] | normalised response (CAL-51 [5]) [%] | normalised response (Hs578T [6]) [%] | normalised response (HCC1937 [7]) [%] | normalised response (CAL-85-1 [8]) [%] | normalised response (MFM-223 [9]) [%] | normalised response (BT-474 [10]) [%] | normalised response (DU-4475 [11]) [%] | normalised response (MCF-10A [12]) [%] | normalised response (CAL-120 [13]) [%] | normalised response (MDA-MB-468 [14]) [%] | normalised response (HDQ-P1 [15]) [%] | normalised response (HCC1143 [16]) [%] | normalised response (MDA-MB-436 [17]) [%] | normalised response (MDA-MB-453 [18]) [%] | normalised response (HCC1599 [19]) [%] | normalised response (BT-549 [20]) [%] | normalised response (CAL-148 [21]) [%] | normalised response (MDA-MB-231 [22]) [%] | normalised response (CAL-51 [23]) [%] | normalised response (Hs578T [24]) [%] | normalised response (HCC1937 [25]) [%] | normalised response (CAL-85-1 [26]) [%] | normalised response (SK-BR-3) [%] | normalised response (MFM-223 [27]) [%] | normalised response (BT-474 [28]) [%] | normalised response (DU-4475 [29]) [%] | normalised response (MCF-10A [30]) [%] | normalised response (CAL-120 [31]) [%] | normalised response (MDA-MB-468 [32]) [%] | normalised response (HDQ-P1 [33]) [%] | normalised response (HCC1143 [34]) [%] | normalised response (MDA-MB-436 [35]) [%] | normalised response (MDA-MB-453 [36]) [%]
NS(=O)(=O)OC[C@@H]1C[C@@H](n2ccc3c(N[C@H]4CCc5ccccc54)ncnc32)C[C@@H]1O [Pevonedistat] (1000 nM) | 95 | 85 | 104 | 106 | -16 | 85 | 72.7 | 86.6 | 102 | 101 | 76.2 | 115 | 96.4 | 49.4 | 104 | 96.1 | 80.8 | 99.4 | 40 | 34.6 | 118 | 71 | 21.2 | 73.2 | 83.3 | 49.9 | 35.5 | 59.5 | 63.6 | 0.82 | 107 | 61.9 | 33 | 89.3 | 61.2 | 34.6 | 80.6
O=C(O)CCCc1ccc(N(CCCl)CCCl)cc1 [Chlorambucil] (1000 nM) | 96.9 | 115 | 104 | 103 | 113 | 108 | 85.3 | 110 | 95.5 | 98.2 | 102 | – | 98.5 | 103 | 103 | 98.2 | 93.3 | 100 | 91.9 | 111 | 95.5 | 99.8 | 108 | 105 | 95 | 103 | 101 | 103 | 96.7 | 105 | 102 | 94.7 | 101 | 97.4 | 100 | 103 | 102
CN(C)C[C@@H]1CCn2cc(c3ccccc32)C2=C(C(=O)NC2=O)c2cn(c3ccccc23)CCO1 [Ruboxistaurin] (1000 nM) | 95 | 106 | 55 | 97.2 | 78.1 | – | 104 | 111 | 79.2 | – | 100 | 103 | 98.7 | 122 | 98.5 | 109 | 106 | 95.9 | 111 | 91.1 | 76.6 | 92.6 | 93 | 104 | 86 | 103 | 87.7 | 86.8 | 87.3 | 80.7 | 86.1 | 83.7 | 73.8 | 85.8 | 90 | 92.2 | 96.1
c1ccc([C@H]2CN3CCSC3=N2)cc1 [Levamisole] (1000 nM) | 104 | 120 | 107 | 117 | 103 | – | 108 | 107 | 102 | 102 | 106 | 113 | 100 | 68.7 | 75.4 | 101 | 85 | 96.9 | 98.4 | 100 | 103 | 104 | 73.4 | 101 | 99.6 | 104 | 113 | 105 | 100 | 99.2 | 109 | 101 | 110 | 106 | 109 | 104 | 105
